Reference: patent US6956030B2, “Use of mometasone furoate for treating upper airway diseases” (Schering Corporation, priority 1994, dated 2005)
Read-outs that look alike come from different tables or passages of the source.

Key:
plasma cortisol = experiment: Phase I rising single-dose safety and tolerance study, metered dose inhaler, 24-hour plasma cortisol; format: in vivo, healthy male volunteers
Procedure: Several Phase I studies were conducted using mometasone furoate formulated for delivery as a suspension in a pressurized metered dose inhaler (MDI). In a randomized, third-party blinded, placebo-controlled rising single-dose safety and tolerance study, aerosolized mometasone furoate was administered by a metered dose inhaler to eight healthy male volunteers. Doses were administered at 11 p.m. and plasma cortisol concentrations were measured during the following 24-hour period.

cortisol secretion = experiment: Multiple dose 28-day study, aqueous nasal spray, cortisol secretion; format: in vivo, normal male volunteers; conditions: intranasal 400 or 1600 mcg/day, 28 days
Text: In a follow-up multiple dose study, 48 normal male volunteers were empaneled in a randomized, third party-blinded, placebo and active-controlled parallel group study. Twelve volunteers in each of four groups received one of the following treatments for 28 days: A) Intranasal aqueous nasal spray suspension formulation of mometasone furoate monohydrate, 400 mcg/day; B) Intranasal aqueous nasal spray suspension formulation of mometasone furoate monohydrate, 1600 mcg/day; C) Intranasal placebo; D) Oral prednisone, 10 mg/day. All treatments were administered as once daily dosing in the morning.

[1] = test system: patients with seasonal allergic rhinitis; experiment: Dose ranging safety and efficacy study, aqueous nasal spray, 4 weeks; format: in vivo; conditions: nasal spray 50, 100, 200, 800 mcg/day
Text: In treating allergic and non-allergic rhinitis, the aqueous suspension of mometasone furoate may be administered intranasally by inserting an appropriate device (such as the pump spray bottle used to deliver Vancenase AQ® Nasal Spray as well as the spray bottle disclosed in the Schering Corporation Industrial Design Deposit DM/026304 registered Jun. 1, 1993) into each nostril. Active drug is then expelled (nasal spray device) or could be nasally inhaled (sniffed) as a powder. Efficacy is generally assessed in a double blind fashion by a reduction in nasal symptoms (e.g., sneezing, itching, congestion, and discharge). Other objective measurements (e.g., nasal peak flow and resistance) can be used as supportive indices of efficacy.
In a dose ranging safety and efficacy study, the mometasone furoate aqueous nasal spray formulation at doses of 50 mcg/day, 100 mcg/day, 200 mcg/day, 800 mcg/day or placebo was administered to 480 patients with seasonal allergic rhinitis for 4 weeks.

[2] = test system: symptomatic patients with seasonal allergic rhinitis; experiment: Onset of clinical efficacy study, nasal spray, 14 days, total nasal symptom score; format: in vivo
Procedure: The study lasted 14 days in length. Data from 201 patients were used for analysis. a. Signs and symptoms were individually scored by the patient on the diary card, and by the investigator or designee at Screening and Baseline (Day 1), Day 4, Day 8, and Day 15 after treatment. All symptoms (nasal and non-nasal) were rated by the investigator or designee according to the following scale: The overall condition of rhinitis was evaluated by the investigator or designee and patient at the same time as symptoms, and scored according to the following criteria: 3. Drug—Each patient was given a metered nasal pump spray bottle containing either an aqueous suspension of mometasone furoate or placebo. […] After the Baseline visit, each patient was instructed to enter into his/her diary the information about the time of onset of nasal relief and level of nasal symptom relief as no relief, slight, moderate, marked, or complete. At Baseline and each follow-up visit, the physician evaluated the following signs and symptoms of allergic rhinitis, scored as 0=none, 1=mild, 2=moderate, 3=severe. • a. NASAL SYMPTOMS • nasal discharge • congestion/stuffiness • sneezing • itching • b. […] At each follow-up visit post Baseline, the physician and patient evaluated the therapeutic response as 5=no relief, 4=slight relief, 3=moderate relief, 2=marked relief, 1=complete relief. After the Baseline visit, each morning and evening the patient completed a diary to assess the 8 signs and symptoms of allergic rhinitis as described above. The primary efficacy results are based on a survival analysis of the onset times of relief (defined as the first time patient experienced at least moderate relief of nasal symptoms) for the mometasone furoate nasal spray and placebo groups. In this analysis, patients reporting slight or no relief for the first 3 days after treatment were censored at Day 3. Also, results from the patient regular diary (by 15-day average) data were evaluated. Data from 201 patients were used in the survival analysis.

[3] = test system: patients with mild asthma

## C[C@@H]1C[C@H]2[C@@H]3CCC4=CC(=O)C=C[C@]4(C)[C@@]3(Cl)[C@@H](O)C[C@]2(C)[C@@]1(OC(=O)c1ccco1)C(=O)CCl [mometasone furoate]
Plasma cortisol; single dose 1000 mcg by MDI at 11 p.m.
  reduction of 24-hour area under the curve plasma cortisol profile (AUC 0-24) compared to placebo: 13%
Plasma cortisol; single dose 2000 mcg by MDI at 11 p.m.
  reduction of 24-hour area under the curve plasma cortisol profile (AUC 0-24) compared to placebo: 23%
Plasma cortisol; single dose 4000 mcg by MDI at 11 p.m.
  reduction of 24-hour area under the curve plasma cortisol profile (AUC 0-24) compared to placebo: 36%
Cortisol secretion
  cortisol secretion compared to placebo: Neither of the 2 doses of the mometasone furoate aqueous nasal spray formulation were associated with any changes in cortisol secretion
  tolerability: well tolerated
[1]
  efficacy relative to placebo: effective relative to placebo
  tolerability: well tolerated
[2]; morning & evening averaged diary, 15-days average
  reduction in total nasal symptom score from baseline: statistically significantly higher than that for the placebo group
[2]; nasal spray 200 mcg once-a-day, survival analysis, placebo 72 hours, log-rank p<0.001
  median onset time to relief (at least moderate relief of nasal symptoms): 35.9 h
[2]; of 101 patients, placebo 50 of 100
  patients who recorded slight or no relief (censored) at Day 3: 24 patients
[3]; 1 mg/day group, day 1
  FEV1 compared to placebo: statistically significant, clinically meaningful improvement
[3]; 1, 2 and 4 mg/day groups, every time point day 3 to day 28
  mean increase in FEV1 versus placebo: statistically significantly greater than for the placebo group
[3]; 1000 mcg or 2000 mcg daily, statistically significant compared to placebo
  8 a.m. plasma cortisol: small decreases from Baseline on Days 15 and 21
[3]; 4000 mcg daily, statistically different from placebo Day 3 through Day 28
  8 a.m. plasma cortisol: greater decreases in plasma cortisol
[3]; at a majority of time points
  increase in FEV1 from Baseline: ≥ 15%
[3]; in vivo
  response to ACTH infusion at post-treatment (Day 30): significant increases from Baseline in plasma cortisol
[3]; three treated groups, MDI twice daily
  pulmonary function measured by FEV1: clinically meaningful increases in pulmonary function
